Experimental data reported in US10975037B2 (priority 2018, dated 2021).
Where two headings read alike, the source gives them in different places. Marks after values point to notes of the source that are not given here.

Key:
[1] = molecular target: human RORγt ligand binding domain (RORγt LBD) (Homo sapiens (Human), UniProt P51449); assay: RORγt ThermoFluor® assay (thermal shift binding)
Protocol: This approach is applicable to a wide variety of systems, and rigorous in theoretical interpretation through quantitation of equilibrium binding constants (KD).
The shift in the melting point described as a ΔTm is proportional to the concentration and affinity of the ligand.
RORγt ThermoFluor® Assay Construct
Reference wells contained RORγt without compounds, and the assay conditions were as follows: • 0.065 mg/mL RORγt • 60 μM 1,8-ANS • 100 mM Hepes, pH 7.0 • 10 mM NaCl • 2.5 mM GSH • 0.002% Tween-20
Project compounds were arranged in a pre-dosed mother plate (Greiner Bio-one) wherein compounds are serially diluted in 100% DMSO by 1:2 from a high concentration of 10 mM over 12 columns within a series (column 12 is a reference well containing DMSO, no compound). The compounds were robotically dispensed directly into assay plates (1×=46 nL) using a Hummingbird capillary liquid handling instrument (Digilab). Following compound dispense, protein and dye in buffer was added to achieve the final assay volume of 3 μL, followed by 1 μL of silicone oil.

full-length human RORγt = full-length human RORγt (Homo sapiens (Human), UniProt P51449); assay: RORγt (full-length human) reporter assay, conditions A or B, HEK293T cells; assay type: cell-based; settings: for inhibition at 2 µM: 2 μM compound concentration
How it was run: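 Dual-luciferase read-out was taken after an overnight (16–20 h) compound exposure. Firefly data were scaled between DMSO-only and saturating reference compound, Renilla-normalized, then plotted against concentration for IC50.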

[2] = read-out: ThermoFluor® Assay, Kd
[3] = HEK-293T, read-out: RORγt (FL) Reporter Assay A or B, % inhibition
[4] = RORγt (FL) Reporter Assay A or B, IC50, HEK293T cells
[5] = HEK-293T, 3 μM compound concentration (footnote *), read-out: RORγt (FL) Reporter Assay A or B, % inhibition

Chain of full-length human RORγt (P51449 other isoform, or with tags, fused parts or gaps): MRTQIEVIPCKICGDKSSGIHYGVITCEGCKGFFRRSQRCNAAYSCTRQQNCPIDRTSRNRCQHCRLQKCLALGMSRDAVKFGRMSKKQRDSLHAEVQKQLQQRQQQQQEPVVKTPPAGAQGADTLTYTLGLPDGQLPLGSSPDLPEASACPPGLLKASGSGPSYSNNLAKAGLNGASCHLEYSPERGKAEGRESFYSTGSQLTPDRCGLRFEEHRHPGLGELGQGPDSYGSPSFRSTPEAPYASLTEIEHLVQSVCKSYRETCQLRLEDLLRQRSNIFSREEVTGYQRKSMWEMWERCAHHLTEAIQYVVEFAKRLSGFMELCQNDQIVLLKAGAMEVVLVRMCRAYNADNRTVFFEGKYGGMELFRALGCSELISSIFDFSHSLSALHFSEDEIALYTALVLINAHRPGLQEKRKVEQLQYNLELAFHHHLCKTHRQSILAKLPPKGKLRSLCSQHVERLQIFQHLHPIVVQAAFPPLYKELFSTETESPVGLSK
Chain of human RORγt ligand binding domain (RORγt LBD) (P51449 other isoform, or with tags, fused parts or gaps): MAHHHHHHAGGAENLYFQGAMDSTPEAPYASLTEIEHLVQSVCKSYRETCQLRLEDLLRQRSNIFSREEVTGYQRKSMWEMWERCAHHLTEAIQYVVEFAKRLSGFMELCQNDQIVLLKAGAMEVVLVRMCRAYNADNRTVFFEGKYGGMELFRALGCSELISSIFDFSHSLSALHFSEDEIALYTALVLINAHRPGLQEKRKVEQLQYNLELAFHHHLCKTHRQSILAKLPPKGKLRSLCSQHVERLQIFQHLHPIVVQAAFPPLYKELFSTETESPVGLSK

Row | SMILES | Kd [1, 2] [nM] | IC50 (full-length human RORγt; [4]) [nM] | also measured
1 | CCn1nc(C(=O)NC[C@H]2CC[C@H](S(C)(=O)=O)CC2)c(Cl)c1-c1ccc(OC2CCC(F)(F)CC2)cc1OC [Example 219, 4-Chloro-5-(4-((4,4-difluorocyclohexyl)oxy)-2-methoxyphenyl)-1-ethyl-N-(((1r,4r)-4-(methylsulfonyl)cyclohexyl)methyl)-1H-pyrazole-3-carboxamide] | 9.9 | 30 | inhibition at 0.67 µM (full-length human RORγt; [3]): 98%
2 | CCn1nc(C(=O)NC[C@H]2CC[C@H](S(N)(=O)=O)CC2)c(Cl)c1-c1ccc(C[C@@H](C)C(F)(F)F)cc1OC(F)F (single isomer, unassigned) [Example 139, 4-Chloro-5-(2-(difluoromethoxy)-4-((R*)-3,3,3-trifluoro-2-methylpropyl)phenyl)-1-ethyl-N-(((1r,4R)-4-sulfamoylcyclohexyl)methyl)-1H-pyrazole-3-carboxamide] | – | 2.7 | Kd ([1]; ThermoFluor® Assay, Kd): 0.58 nM; inhibition at 1 µM (full-length human RORγt; HEK-293T, 1 μM compound concentration (footnote ***), read-out: RORγt (FL) Reporter Assay A or B, % inhibition): 122%
3 | CCn1nc(C(=O)NC[C@H]2CC[C@H](S(=O)(=O)NC=O)CC2)c(Cl)c1-c1ccc(CC(C)(C)C(F)(F)F)cc1OC(F)F [Example 67, 4-Chloro-5-(2-(difluoromethoxy)-4-(3,3,3-trifluoro-2,2-dimethylpropyl)phenyl)-1-ethyl-N-(((1r,4r)-4-(N-formylsulfamoyl)cyclohexyl)methyl)-1H-pyrazole-3-carboxamide] | 0.039 | – | RORγt (FL) Reporter Assay A or B, % inhibition (full-length human RORγt; 3 μM compound concentration (footnote *)): 118* %; IC50 (full-length human RORγt; HEK293T cells, read-out: RORγt (FL) Reporter Assay A or B, IC50): 56 nM

The next lines start with results.

Row | Kd [1, 2] [nM] | IC50 (full-length human RORγt; [4]) [nM] | SMILES | also measured
4 | 26 | 93 | CCn1nc(C(=O)NC[C@]2(O)CC[C@@H](S(C)(=O)=O)CC2)c(C)c1-c1ccc(CCC(F)(F)F)cc1OC [Example 225, 1-Ethyl-N-(((1s,4s)-1-hydroxy-4-(methylsulfonyl)cyclohexyl)methyl)-5-(2-methoxy-4-(3,3,3-trifluoropropyl)phenyl)-4-methyl-1H-pyrazole-3-carboxamide] | inhibition at 2 µM (full-length human RORγt; [3]): 76%
5 | 0.27 | 4.2 | CCn1nc(C(=O)NC[C@]2(O)CC[C@@H](S(C)(=O)=O)CC2)c(Cl)c1-c1ccc(C(O)(C(F)(F)F)C(F)(F)F)cc1OC(F)F [Example 117, 4-Chloro-5-(2-(difluoromethoxy)-4-(1,1,1,3,3,3-hexafluoro-2-hydroxypropan-2-yl)phenyl)-1-ethyl-N-(((1s,4s)-1-hydroxy-4-(methylsulfonyl)cyclohexyl)methyl)-1H-pyrazole-3-carboxamide] | inhibition at 3 µM (full-length human RORγt; [5]): 102%
6 | 47 | 220 | CCn1nc(C(=O)NC[C@]2(O)CC[C@@H](S(C)(=O)=O)CC2)c(Cl)c1-c1ccc(C2(O)CCC(F)(F)CC2)cc1OC(F)F [Example 104, 4-Chloro-5-(4-(4,4-difluoro-1-hydroxycyclohexyl)-2-(difluoromethoxy)phenyl)-1-ethyl-N-(((1s,4s)-1-hydroxy-4-(methylsulfonyl)cyclohexyl)methyl)-1H-pyrazole-3-carboxamide] | inhibition at 3 µM (full-length human RORγt; [5]): 98%
7 | – | 6 | CCOC(=O)[C@]1(CNC(=O)c2nn(CC)c(-c3ccc(N[C@H](C)C(F)(F)F)cc3OC)c2Cl)CC[C@H](S(C)(=O)=O)CC1 (relative stereo) [Example 94, Ethyl (1s*,4S*)-1-((4-chloro-1-ethyl-5-(2-methoxy-4-(((R)-1,1,1-trifluoropropan-2-yl)amino)phenyl)-1H-pyrazole-3-carboxamido)methyl)-4-(methylsulfonyl)cyclohexane-1-carboxylate] | Kd ([1]; ThermoFluor® Assay, Kd): 0.22 nM; inhibition at 6 µM (full-length human RORγt; HEK-293T, read-out: RORγt (FL) Reporter Assay A or B, % inhibition @ 6 μM, 6 μM compound concentration): 101%
8 | 40 | 150 | CCn1nc(C(=O)NC[C@H]2CC[C@H](S(C)(=O)=O)CC2)c(Cl)c1-c1ccc(N2CC(C(F)(F)F)C2)cc1OC [Example 208, 4-Chloro-1-ethyl-5-(2-methoxy-4-(3-(trifluoromethyl)azetidin-1-yl)phenyl)-N-(((1r,4r)-4-(methylsulfonyl)cyclohexyl)methyl)-1H-pyrazole-3-carboxamide] | inhibition at 2 µM (full-length human RORγt; [3]): 87%
